The results in this text go back to ChEMBL document CHEMBL1275304, “Use of phosphonyl carbanions in the synthesis of anti-inflammatory active phosphorus-containing fused heterocycles and relevance phosphonates” (Eur J Med Chem, 2010).

Each structure is given as a SMILES string.

Usually inhibition in vivo stands for the percentage by which the read-out fell short of the control. The term LD50 denotes the dose at which mortality reaches 50%. A lower LD50 goes with greater toxicity.

In data set [1] the test system is Mus musculus. Nature of the data set: Toxicity in albino mouse assessed as mortality at 500 to 1000 mg/kg, ip after 24 hrs. The format is organism-based. Further details: dose 500-1000 mg/kg, route intraperitoneal. As to conditions: in vivo.
The test system of data set [2] is Mus musculus. Description: Toxicity in albino mouse assessed as toxic symptom at 500 to 1000 mg/kg, ip after 24 hrs. The format is organism-based. On the set-up: dose 500-1000 mg/kg, route intraperitoneal. As to conditions: in vivo.
Data set [3] has as its system Rattus norvegicus. Description: Antiinflammatory activity against carrageenan-induced fisher 344 rat paw edema model assessed as reduction of paw volume at 50 mg/kg, ip after 3.5 hrs by plethysmometer. The settings on record: fisher 344, ip, route intraperitoneal. It counts as functional. (In general: The carrageenan paw model is a standard test of acute inflammation.)

The nature of data set [4]: Acute toxicity in ip dosed albino mouse after 24 hrs. The format is organism-based. As to conditions: in vivo.
The test system of data set [5] is Rattus norvegicus. Description: Antiinflammatory activity against carrageenan-induced fisher 344 rat paw edema model assessed as inhibition of granuloma at 100 mg/kg. The format is functional.
In data set [6] the test system is Rattus norvegicus. Nature of the data set: Antiinflammatory activity against carrageenan-induced fisher 344 rat paw edema model assessed as inhibition of granuloma. The format is functional, organism-based.

Consider `CCOP(=O)(/C=C\c1cc2c(s1)=C(C)OP(=O)(OCC)C=2C)OCC` (stereo not drawn), for which the Activity result in the data set with Mus musculus [1] and with Mus musculus [2] was “Non-toxic” each time. The inhibition in vivo at 50 mg/kg in the data set with Rattus norvegicus [3] was determined as 87.6%. In data set [4], this compound returned a 50% lethal dose (LD50) at 24 h above 300 µmol/kg.

Regarding `CCOC(=O)C1C2(C)C=CC(=O)C2(C)OP1(=O)OCC` (stereo not drawn), the inhibition in vivo at 50 mg/kg in the data set with Rattus norvegicus [3] worked out at 59.7%. In the data set with Rattus norvegicus [5], the inhibition in vivo at 100 mg/kg was 59.7%. The compound also yielded an LD50 at 24 h in data set [4] above 300 µmol/kg.

Turning to `CCOP1(=O)OC(C)=c2sc(Br)cc2=C1C(=O)OC` (stereo not drawn), the inhibition in vivo at 50 mg/kg in the data set on Rattus norvegicus [3] worked out at 68.1%. Also, in the data set with Rattus norvegicus [5], the inhibition in vivo at 100 mg/kg was 68.1%. Also, the median lethal dose (LD50) at 24 h in data set [4] was above 300 µmol/kg.

For `CCOP1(=O)OC(C)=c2sc(C(C#N)P(=O)(OCC)OCC)cc2=C1C#N` (stereo not drawn), the Activity entry with Mus musculus [1] and in the data set with Mus musculus [2] was “Non-toxic” throughout. For the same compound, the inhibition in vivo at 50 mg/kg with Rattus norvegicus [3] worked out at 81.1%. Moreover, the LD50 at 24 h in data set [4] is above 300 µmol/kg.

On to `COc1ccc2c(c1)c(CC(=O)O)c(C)n2C(=O)c1ccc(Cl)cc1` [INDOMETHACIN], for which the inhibition in vivo at 50 mg/kg with Rattus norvegicus [3] was 68.4%. The same compound displayed an LD50 at 24 h in data set [4] above 300 µmol/kg.

As for `CCOP1(=O)OC(C)=c2sc(C(C(=O)OC)P(=O)(OCC)OCC)cc2=C1C(=O)OC` (stereo not drawn), the Activity entry in the data set with Mus musculus [1] was “Non-toxic”; in the data set with Mus musculus [2], “Non-toxic”; in the data set with Rattus norvegicus [6] it was “Dose-dependent effect”. For the same compound, the inhibition in vivo at 50 mg/kg in the data set with Rattus norvegicus [3] turned out to be 75.9%. In data set [4], this compound yielded a 50% lethal dose (LD50) at 24 h above 300 µmol/kg.

As for `CCOP1(=O)OC2(C)C(=O)C=CC2(C)C1C(=O)OC` (stereo not drawn), the inhibition in vivo at 50 mg/kg in the data set with Rattus norvegicus [3] was found to be 63.2%. Moreover, in the data set on Rattus norvegicus [5], the inhibition in vivo at 100 mg/kg stood at 63.2%. Further, in data set [4], the LD50 at 24 h was above 300 µmol/kg.

For the compound `CCOP1(=O)OC(C)=c2sc(Br)cc2=C1C#N` (stereo not drawn), the inhibition in vivo at 50 mg/kg with Rattus norvegicus [3] was found to be 62.8%. Also, the inhibition in vivo at 100 mg/kg in the data set with Rattus norvegicus [5] came to 62.8%. Also, the median lethal dose (LD50) at 24 h in data set [4] is above 300 µmol/kg.

Turning to `CCOC(=O)C1=c2cc(Br)sc2=C(C)OP1(=O)OCC` (stereo not drawn), the inhibition in vivo at 50 mg/kg with Rattus norvegicus [3] came out at 60.4%. In the data set with Rattus norvegicus [5], the inhibition in vivo at 100 mg/kg worked out at 60.4%. Besides, in data set [4], the LD50 at 24 h is above 300 µmol/kg.

For `CCOC(=O)C1=c2cc(C(C(=O)OCC)P(=O)(OCC)OCC)sc2=C(C)OP1(=O)OCC` (stereo not drawn), the Activity entry is “Non-toxic” in the data set on Mus musculus [1], “Non-toxic” with Mus musculus [2] and “Dose-dependent effect” with Rattus norvegicus [6]. Moreover, in the data set on Rattus norvegicus [3], the inhibition in vivo at 50 mg/kg worked out at 76.1%. In data set [4], this compound returned an LD50 at 24 h above 300 µmol/kg.

`CCOP1(=O)OC2(C)C(=O)C=CC2(C)C1C#N` (stereo not drawn): the inhibition in vivo at 50 mg/kg in the data set on Rattus norvegicus [3] is 66.6%. Moreover, the inhibition in vivo at 100 mg/kg in the data set on Rattus norvegicus [5] turned out to be 66.6%. This compound came in with an LD50 at 24 h in data set [4] above 300 µmol/kg.
